Assay results: patent publication US12162855B2, “Tetrahydroquinolino derivatives for the treatment of metastatic and chemoresistant cancers” (THE TRUSTEES OF PRINCETON UNIVERSITY, priority 2018, dated 2024)
pIC50: −log10 of the molar value. Where two headings read alike, the source gives them in different places.

Key:
ALDH1a3 [1] = target: T1, ALDH1a3 (Homo sapiens, UniProt P47895); assay: ALDEFLUOR assay in SUM159-M1a-Aldh1a3 cells (flow cytometry); assay type: cell-based; conditions: for Percent of Cells Positive for ALDEFLUOR at 100 nM / inhibition at 0.1 µM: SUM159-M1a-Aldh1a3 cells, compound at 100 nM; for inhibition at 0.1 µM: read-out: Inhibitory Activity at 100 nM (%); for inhibition of ALDH1a3 activity (FIG. 1A): compounds at 100 nM; for lowest concentration at which inhibitory activity detected ([inh-min], FIG. 1B): threshold at lower bound of two standard deviations of control samples
T1 construct: lentiviral vectors containing either the vector backbone or full-length human Aldh1a3; expressed in transfected cells; host or cells: SUM159-M1a (A1) and SUM159 (A7) breast cancer cells, lentiviral pLex vector, puromycin selection
T1 sequence (P47895 1-512): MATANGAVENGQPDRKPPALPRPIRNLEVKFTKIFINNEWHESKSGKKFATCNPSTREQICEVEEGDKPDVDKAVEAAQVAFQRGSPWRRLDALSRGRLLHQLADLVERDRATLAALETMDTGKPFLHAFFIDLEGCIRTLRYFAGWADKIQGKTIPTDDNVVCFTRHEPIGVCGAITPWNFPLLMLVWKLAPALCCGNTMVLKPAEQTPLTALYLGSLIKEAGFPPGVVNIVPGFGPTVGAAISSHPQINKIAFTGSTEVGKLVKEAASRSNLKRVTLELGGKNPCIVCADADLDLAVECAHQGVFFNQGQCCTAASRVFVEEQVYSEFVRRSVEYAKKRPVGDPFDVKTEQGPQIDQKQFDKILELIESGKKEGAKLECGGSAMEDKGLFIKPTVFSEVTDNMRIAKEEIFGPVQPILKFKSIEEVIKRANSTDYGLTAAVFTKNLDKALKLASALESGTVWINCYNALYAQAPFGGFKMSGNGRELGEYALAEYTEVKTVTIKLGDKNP
Experimental: (§1) Cells were counted, centrifuged and resuspended at 1,000,000 cells/mL in ALDEFLUOR™ buffer (Stemcell Technologies). ALDEFLUOR™ substrate (Stemcell Technologies, 1:200) and test compound or 1 mM DEAB were added to cell suspension and incubated at 37° C. for 45 minutes with vortexing every 15 minutes. Cells were centrifuged and resuspended in ALDEFLUOR™ buffer with DAPI at 5 μg/mL. Samples were analyzed with the BD LSR2 flow cytometry platform. Gating was performed using DEAB as a negative control.
Gating for background fluorescence was performed using 1 millimolar DEAB as a negative control.
The [inh-min] threshold was set at the lower bound of two standard deviations of control samples, while the IC50 threshold was set at 50% of the average of control samples.
High activity was gated at the 99th percentile of cells at a MBE1.5 concentration of 10 nanomolar. The [inh-min] threshold was set at the lower bound of two standard deviations of control samples.
An ALDEFLUOR™ assay was also used to assess the relative activity of several compounds described herein against SUM159-M1a-Aldh1a3 cells. The activity of several compounds in the assay at a concentration of 100 nM is reported in Table 1, along with the chemical structure and compound name associated with each compound.

Aldh3a1 = target: T2, Aldh3a1 (Homo sapiens, UniProt P30838); assay: ALDEFLUOR assay in MCF7 cells transduced with human Aldh3a1; assay type: cell-based; conditions: concentrations below 10 μM
T2 construct: expressed in transfected cells; host or cells: MCF7, lentiviral pLex vector
T2 sequence (P30838 1-453): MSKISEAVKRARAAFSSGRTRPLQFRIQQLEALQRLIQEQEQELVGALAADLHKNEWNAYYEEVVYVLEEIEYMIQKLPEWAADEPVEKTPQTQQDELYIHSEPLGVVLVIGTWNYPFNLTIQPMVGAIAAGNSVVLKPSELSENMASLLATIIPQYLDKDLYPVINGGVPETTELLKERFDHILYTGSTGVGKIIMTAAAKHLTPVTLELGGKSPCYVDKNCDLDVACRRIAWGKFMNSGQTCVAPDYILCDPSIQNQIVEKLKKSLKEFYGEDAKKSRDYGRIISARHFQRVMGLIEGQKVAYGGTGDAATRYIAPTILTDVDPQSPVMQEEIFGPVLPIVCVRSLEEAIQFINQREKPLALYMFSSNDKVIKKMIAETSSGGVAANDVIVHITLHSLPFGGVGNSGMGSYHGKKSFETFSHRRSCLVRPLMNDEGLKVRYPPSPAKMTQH
Experimental: The coding sequences of Aldh1a1, Aldh1a2, Aldh1a3 and Aldh3a1 were cloned from cDNA made from pooled human reference RNA samples. Cloned sequences flanked by Age1 and Xho1 restriction sites were inserted into the pLex lentiviral plasmid. Clones were sequenced and compared against NCBI expressed sequence tags (ESTs) for accuracy. […]. Viruses were collected and filtered at 0.45 μm, then cells were transduced using polybrene (8 μg/mL) for 12 hours, followed by culture with 1 μg/mL puromycin for the duration of experiments. All viral transduction and selection was performed on a cell population-wide basis.
as §1

ALDH1a3 [2] = target: T1, ALDH1a3; assay: ALDEFLUOR assay in MCF7 cells transduced with human Aldh1a3; assay type: cell-based
Experimental: (§2) The coding sequences of Aldh1a1, Aldh1a2, Aldh1a3 and Aldh3a1 were cloned from cDNA made from pooled human reference RNA samples. Cloned sequences flanked by Age1 and Xho1 restriction sites were inserted into the pLex lentiviral plasmid. Clones were sequenced and compared against NCBI expressed sequence tags (ESTs) for accuracy. Viral production of each enzyme was performed by transfection into the 293T packaging cell line using PEI along with PsPax2 and VSVG packaging vectors. Viruses were collected and filtered at 0.45 μm, then cells were transduced using polybrene (8 μg/mL) for 12 hours, followed by culture with 1 μg/mL puromycin for the duration of experiments. All viral transduction and selection was performed on a cell population-wide basis.
as §1
(§3) ALDH isoforms 1a1, 1a2, 1a3 and 3a1 were expressed in MCF7 or SUM159 cells, which were subsequently used in an ALDEFLUOR™ assay.

ALDH1a3 [3] = target: T1, ALDH1a3; assay: ALDEFLUOR assay in SUM159 cells expressing ALDH isoforms 1a1, 1a2, 1a3, 3a1; assay type: cell-based; conditions: SUM159 cells expressing ALDH 1a1, 1a2, 1a3 or 3a1
Experimental: as §2, §1, §3

SUM159-M1-p44 cells = assay: Lung metastasis xenograft, SUM159-M1-p44 cells by tail-vein injection, BLI; assay type: in vivo, mouse; conditions: three doses of 50 mg/kg in combination with 25 mg/kg paclitaxel, days 17, 19 and 21
Experimental: In another xenograft experiment, mice were injected with SUM159-M1-p44 cells via tail-vein injection, as described above, and randomized following injection. Metastatic burden was imaged on day 16 via intravital imaging. Mice were then treated with paclitaxel (25 mg/kg) and either vehicle or MBE1.5 (50 mg/kg) on days 17, 19 and 21. Lung metastatic burden was then imaged on day 22. Signals were normalized to day 16.

Compound	pIC50 (ALDH1a3 [1])	Percent of Cells Positive for ALDEFLUOR at 100 nM (ALDH1a3 [1]) [%]	inhibition at 0.1 µM (ALDH1a3 [1]) [%]	inhibition of ALDH1a3 activity (FIG. 1A) (ALDH1a3 [1])	lowest concentration at which inhibitory activity detected ([inh-min], FIG. 1B) (ALDH1a3 [1]) [nM]	inhibition of Aldh3a1 activity (FIG. 2A) (Aldh3a1)	inhibition of Aldh1a3 activity (FIG. 2A) (ALDH1a3 [2]; MCF7 cells)	isoform specificity, percentage of ALDEFLUOR-positive SUM159 cells (FIG. 13C) (ALDH1a3 [3])	pIC50 (ALDH1a3 [1]; dose titration, IC50 threshold at 50% of average of control samples, read-out: IC50 (percentage of ALDEFLUOR-positive cells, FIG. 1B))	inhibition of highly ALDH1a3-active cells (high ALDH percentage, FIG. 1C) (ALDH1a3 [1]; dose titration, high activity gated at 99th percentile at 10 nanomolar MBE1.5)	lung metastasis by BLI (FIG. 14) (SUM159-M1-p44 cells)	isoform specificity, percentage of ALDEFLUOR-positive MCF7 cells (FIG. 13B) (ALDH1a3 [2]; MCF7 cells expressing ALDH 1a1, 1a2, 1a3 or 3a1)
CCc1cnccc1C(=O)Nc1cc2c(cc1F)NC(=O)CC2 [MBE1, 3-ethyl-N-(7-fluoro-2-oxo-1,2,3,4-tetrahydroquinolin-6-yl)isonicotinamide]	8.00 to 8.10	0.73	99	high-affinity compounds for the inhibition of ALDH1a3 activity	2	does not inhibit	effective at inhibiting Aldh1a3 activity					
CCc1ccccc1C(=O)Nc1cc2c(cc1F)NC(=O)CC2 [MBE1.5, 2-ethyl-N-(7-fluoro-2-oxo-1,2,3,4-tetrahydroquinolin-6-yl)benzamide]		0.03	100	high-affinity compounds for the inhibition of ALDH1a3 activity	2			specifically inhibits ALDH1a3 at concentrations below 10 μM	8.00 to 8.10	more adept at inhibiting highly ALDH1a3-active cells than MBE1	caused regression of established metastatic disease	specifically inhibits ALDH1a3 at concentrations below 10 μM
